Test results reported in the supplement of paper PMC10307832.

How the values were obtained:
Assay in all cases: relative viability (nuclei count vs DMSO), 5 days (fraction); higher = more cells survive
A549 = tested on: A549
In short: (§1)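 Medians of duplicate plates are given as relative viability. That measure is the nuclei count in treated wells divided by the count in vehicle wells. Counts were taken on 4× images of lung cancer cell lines in 1536-well plates, 5 days after pin-tool dosing the day after seeding with one drug alone or a fixed anchor-drug dose plus five library-drug doses (not always all listed) in √10 steps.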

NCI-H2170 = tested on: NCI-H2170
In short: as §1

Calu-6 = tested on: Calu-6
In short: as §1

EBC-1 = tested on: EBC-1
In short: as §1

IA-LM = tested on: IA-LM
In short: as §1

NCI-H1299 = tested on: NCI-H1299
In short: as §1

NCI-H727 = tested on: NCI-H727
In short: as §1

NCI-H520 = tested on: NCI-H520
In short: as §1

NCI-H1703 = tested on: NCI-H1703
In short: as §1

NCI-H2023 = tested on: NCI-H2023
In short: as §1

Cc1csc(=NC2CCCCC2)n1/N=C/c1ccc(O)c(O)c1O [MIM1] + CS(=O)(=O)CCNCc1ccc(-c2ccc3ncnc(Nc4ccc(OCc5cccc(F)c5)c(Cl)c4)c3c2)o1 [Lapatinib] (partner 2 µM)
relative viability (A549; first compound 0.2 µM): 0.997
relative viability (A549; first compound 0.6325 µM): 0.941
relative viability (A549; first compound 2 µM): 1.03
relative viability (A549; first compound 6.325 µM): 0.595
relative viability (A549; first compound 20 µM): 0.222
relative viability (NCI-H2170; first compound 0.2 µM): 0.282
relative viability (NCI-H2170; first compound 0.6325 µM): 0.294
relative viability (NCI-H2170; first compound 2 µM): 0.26
relative viability (NCI-H2170; first compound 6.325 µM): 0.267
relative viability (NCI-H2170; first compound 20 µM): 0.258
relative viability (Calu-6; first compound 0.2 µM): 1.08
relative viability (Calu-6; first compound 0.6325 µM): 0.985
relative viability (Calu-6; first compound 2 µM): 1.06
relative viability (Calu-6; first compound 6.325 µM): 0.509
relative viability (Calu-6; first compound 20 µM): 0.289
relative viability (EBC-1; first compound 0.2 µM): 0.199
relative viability (EBC-1; first compound 0.6325 µM): 0.279
relative viability (EBC-1; first compound 2 µM): 0.212
relative viability (EBC-1; first compound 6.325 µM): 0.209
relative viability (EBC-1; first compound 20 µM): 0.205
relative viability (IA-LM; first compound 0.2 µM): 0.66
relative viability (IA-LM; first compound 0.6325 µM): 0.869
relative viability (IA-LM; first compound 2 µM): 0.716
relative viability (IA-LM; first compound 6.325 µM): 0.375
relative viability (IA-LM; first compound 20 µM): 0.151
relative viability (NCI-H1299; first compound 0.2 µM): 0.978
relative viability (NCI-H1299; first compound 0.6325 µM): 0.954
relative viability (NCI-H1299; first compound 2 µM): 1
relative viability (NCI-H1299; first compound 6.325 µM): 0.924
relative viability (NCI-H1299; first compound 20 µM): 0.948
relative viability (NCI-H727; first compound 0.2 µM): 0.852
relative viability (NCI-H727; first compound 0.6325 µM): 0.969
relative viability (NCI-H727; first compound 2 µM): 0.733
relative viability (NCI-H727; first compound 6.325 µM): 0.745
relative viability (NCI-H727; first compound 20 µM): 0.257
relative viability (NCI-H520; first compound 0.2 µM): 0.823
relative viability (NCI-H520; first compound 0.6325 µM): 0.691
relative viability (NCI-H520; first compound 2 µM): 0.924
relative viability (NCI-H520; first compound 6.325 µM): 0.691
relative viability (NCI-H520; first compound 20 µM): 0.269
relative viability (NCI-H1703; first compound 0.2 µM): 1.02
relative viability (NCI-H1703; first compound 0.6325 µM): 1.23
relative viability (NCI-H1703; first compound 2 µM): 0.906
relative viability (NCI-H1703; first compound 6.325 µM): 0.166
relative viability (NCI-H1703; first compound 20 µM): 0.202
relative viability (NCI-H2023; first compound 0.2 µM): 0.947
relative viability (NCI-H2023; first compound 0.6325 µM): 0.716
relative viability (NCI-H2023; first compound 2 µM): 0.683
relative viability (NCI-H2023; first compound 6.325 µM): 0.253
relative viability (NCI-H2023; first compound 20 µM): 0.0707

Cc1csc(=NC2CCCCC2)n1/N=C/c1ccc(O)c(O)c1O [MIM1] + CC1(C)CCC(c2ccc(Cl)cc2)=C(CN2CCN(c3ccc(C(=O)NS(=O)(=O)c4ccc(N[C@H](CCN5CCOCC5)CSc5ccccc5)c(S(=O)(=O)C(F)(F)F)c4)cc3)CC2)C1 [Navitoclax] (partner 0.5 µM)
relative viability (A549; first compound 0.2 µM): 1.17
relative viability (A549; first compound 0.6325 µM): 1.24
relative viability (A549; first compound 2 µM): 1.3
relative viability (A549; first compound 6.325 µM): 0.843
relative viability (A549; first compound 20 µM): 0.0781
relative viability (NCI-H2170; first compound 0.2 µM): 0.571
relative viability (NCI-H2170; first compound 0.6325 µM): 0.636
relative viability (NCI-H2170; first compound 2 µM): 0.549
relative viability (NCI-H2170; first compound 6.325 µM): 0.468
relative viability (NCI-H2170; first compound 20 µM): 0.298
relative viability (Calu-6; first compound 0.2 µM): 0.772
relative viability (Calu-6; first compound 0.6325 µM): 0.93
relative viability (Calu-6; first compound 2 µM): 0.857
relative viability (Calu-6; first compound 6.325 µM): 0.205
relative viability (Calu-6; first compound 20 µM): 0.135
relative viability (EBC-1; first compound 0.2 µM): 0.417
relative viability (EBC-1; first compound 0.6325 µM): 0.475
relative viability (EBC-1; first compound 2 µM): 0.367
relative viability (EBC-1; first compound 6.325 µM): 0.227
relative viability (EBC-1; first compound 20 µM): 0.166
relative viability (IA-LM; first compound 0.2 µM): 0.588
relative viability (IA-LM; first compound 0.6325 µM): 0.713
relative viability (IA-LM; first compound 2 µM): 0.721
relative viability (IA-LM; first compound 6.325 µM): 0.195
relative viability (IA-LM; first compound 20 µM): 0.0808
relative viability (NCI-H1299; first compound 0.2 µM): 1.06
relative viability (NCI-H1299; first compound 0.6325 µM): 1.07
relative viability (NCI-H1299; first compound 2 µM): 1.04
relative viability (NCI-H1299; first compound 6.325 µM): 1.05
relative viability (NCI-H1299; first compound 20 µM): 0.974
relative viability (NCI-H727; first compound 0.2 µM): 0.441
relative viability (NCI-H727; first compound 0.6325 µM): 0.493
relative viability (NCI-H727; first compound 2 µM): 0.324
relative viability (NCI-H727; first compound 6.325 µM): 0.346
relative viability (NCI-H727; first compound 20 µM): 0.27
relative viability (NCI-H520; first compound 0.2 µM): 1.08
relative viability (NCI-H520; first compound 0.6325 µM): 1.06
relative viability (NCI-H520; first compound 2 µM): 1.06
relative viability (NCI-H520; first compound 6.325 µM): 0.832
relative viability (NCI-H520; first compound 20 µM): 0.517
relative viability (NCI-H1703; first compound 0.2 µM): 0.91
relative viability (NCI-H1703; first compound 0.6325 µM): 1.15
relative viability (NCI-H1703; first compound 2 µM): 1.03
relative viability (NCI-H1703; first compound 6.325 µM): 0.135
relative viability (NCI-H1703; first compound 20 µM): 0.117
relative viability (NCI-H2023; first compound 0.2 µM): 0.992
relative viability (NCI-H2023; first compound 0.6325 µM): 1.03
relative viability (NCI-H2023; first compound 2 µM): 0.91
relative viability (NCI-H2023; first compound 6.325 µM): 0.683
relative viability (NCI-H2023; first compound 20 µM): 0.432
